Experiments:
K-Ras G12D = molecular target: T1, K-Ras G12D (Homo sapiens, UniProt P01116, G12D); assay: HTRF resonance energy transfer assay, K-Ras G12D / SOS1 interaction; type: biochemical; conditions: HTRF assay of Example 5; read-out: IC50 against K-Ras G12D
T1 construct: made in house; host or cells: E. coli BL21 (DE3)
Procedure, shortened: (§1)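 Compounds, tested in duplicate at 10 μM down to 0.01 μM, were read after about 10 min or more by HTRF as the 665/620 nm emission ratio (337 nm excitation) to derive IC50. This ratio reports FRET between an anti-GST-Eu donor on GST-K-Ras (wild-type or mutant) and an anti-6His-XL665 acceptor on His-hSOS1. Buffer: ~5 mM HEPES pH 7.4, 150 mM NaCl, 1 mM DTT, 0.05% BSA, 0.0025% Igepal.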

K-Ras G12S = molecular target: T2, K-Ras G12S (Homo sapiens, UniProt P01116, G12S); assay: HTRF resonance energy transfer assay, K-Ras G12S / SOS1 interaction; type: biochemical; conditions: HTRF assay of Example 5; read-out: IC50 against K-Ras G12S
T2 construct: made in house; host or cells: E. coli BL21 (DE3)
T2 sequence (P01116 1-188 isoform P01116-2 G12S): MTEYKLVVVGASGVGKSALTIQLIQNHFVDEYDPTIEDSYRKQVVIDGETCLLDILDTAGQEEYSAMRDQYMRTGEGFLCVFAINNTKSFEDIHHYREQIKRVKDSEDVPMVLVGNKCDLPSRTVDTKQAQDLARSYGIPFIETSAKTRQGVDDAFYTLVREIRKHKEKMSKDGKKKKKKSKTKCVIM
Procedure, shortened: as §1

A549 cells = assay: Ras cellular assay, growth of cells with K-Ras G12S mutation (CellTiter-Glo); type: cell-based; conditions: Homo sapiens, cell growth, Example 9, G12S mutation, read-out: IC50 against A549 cells
Procedure, shortened: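 Growth inhibition IC50 values come from four-parameter fits of CellTiter-Glo luminescence, read about 6 days after compound addition. G12S-mutant A549 cells (e.g. 800/well, RPMI-1640 + 10% heat-inactivated FBS) were plated in tissue-culture-treated or ultra-low-attachment 384-well format. Dosing began the following day with serial dilutions, e.g. 10 points, 3-fold.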

K-Ras G12V = molecular target: T3, K-Ras G12V (Homo sapiens, UniProt P01116, G12V); assay: HTRF resonance energy transfer assay, K-Ras G12V / SOS1 interaction; type: biochemical; conditions: HTRF assay of Example 5; read-out: IC50 against K-Ras G12V
T3 construct: made in house; host or cells: E. coli BL21 (DE3)
T3 sequence (P01116 1-188 isoform P01116-2 G12V): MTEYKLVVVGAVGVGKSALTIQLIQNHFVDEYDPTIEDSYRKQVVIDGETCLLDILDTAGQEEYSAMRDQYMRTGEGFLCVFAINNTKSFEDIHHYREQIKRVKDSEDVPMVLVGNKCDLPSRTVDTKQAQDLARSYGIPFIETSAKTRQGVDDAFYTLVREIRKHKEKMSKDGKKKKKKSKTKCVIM
Procedure, shortened: as §1

SW620 cells = assay: Ras cellular assay, growth of cells with K-Ras G12V mutation (CellTiter-Glo); type: cell-based; conditions: Homo sapiens, SW-620; cell growth, Example 9, G12V mutation; read-out: IC50 against SW620 cells
Procedure, shortened: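 IC50 values came from a four-parameter fit of CellTiter-Glo viability, read roughly 6 days after dosing with e.g. a 10-point threefold dilution series. G12V-mutant SW620 cells (e.g. 800 per well) had been plated the previous day in RPMI-1640/10% heat-inactivated FBS, on tissue culture-treated or ultra-low attachment plates.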

K-Ras WT = molecular target: T4, K-Ras WT (Homo sapiens, UniProt P01116); assay: HTRF resonance energy transfer assay, K-Ras WT / SOS1 interaction; type: biochemical; conditions: HTRF assay of Example 5; read-out: IC50 against K-Ras WT
T4 construct: made in house; host or cells: E. coli BL21 (DE3)
T4 sequence (P01116 1-188 isoform P01116-2): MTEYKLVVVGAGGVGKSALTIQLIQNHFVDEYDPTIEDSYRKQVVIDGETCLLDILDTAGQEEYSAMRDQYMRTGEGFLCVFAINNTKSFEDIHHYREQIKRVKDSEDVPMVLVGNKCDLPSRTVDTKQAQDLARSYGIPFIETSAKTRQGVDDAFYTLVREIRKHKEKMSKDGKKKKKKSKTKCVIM
Procedure, shortened: as §1

T1 sequence (P01116 1-188 isoform P01116-2 G12D): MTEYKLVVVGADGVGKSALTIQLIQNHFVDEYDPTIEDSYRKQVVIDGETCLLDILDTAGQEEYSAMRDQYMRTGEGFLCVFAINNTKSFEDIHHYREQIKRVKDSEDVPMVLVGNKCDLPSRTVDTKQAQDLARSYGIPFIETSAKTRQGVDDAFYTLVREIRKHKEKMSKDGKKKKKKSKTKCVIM

## C[C@H](Oc1nc2c3c(c(Cl)c(-c4ccc(F)c5sc(N)c(C#N)c45)c(F)c3n1)OCCN2C1CCN(C(=O)C2CC2C#N)CC1)[C@@H]1CCCN1C (stereo partly drawn) [Compound 839, 2-amino-4-(8-chloro-4-(1-(trans-2-cyanocyclopropane-1-carbonyl)piperidin-4-yl)-10-fluoro-2-((S)-1-((S)-1-methylpyrrolidin-2-yl)ethoxy)-5,6-dihydro-4H-[1,4]oxazepino[5,6,7-de]quinazolin-9-yl)-7-fluorobenzo[b]thiophene-3-carbonitrile]
K-Ras G12D
  IC50: < 100 nM
K-Ras G12S
  IC50: < 100 nM
A549 cells
  IC50: < 5000 nM
K-Ras G12V
  IC50: < 100 nM
SW620 cells
  IC50: < 5000 nM
K-Ras WT
  IC50: < 100 nM

## CNC(=O)C1CCCC(N2CCOc3c(Cl)c(-c4ccc(F)c5sc(N)c(C#N)c45)c(F)c4nc(OC[C@@]56CCCN5C[C@H](F)C6)nc2c34)C1 (stereo partly drawn) [Compound 841, 3-(9-(2-amino-3-cyano-7-fluorobenzo[b]thiophen-4-yl)-8-chloro-10-fluoro-2-(((2R,7aS)-2-fluorotetrahydro-1H-pyrrolizin-7a(5H)-yl)methoxy)-5,6-dihydro-4H-[1,4]oxazepino[5,6,7-de]quinazolin-4-yl)-N-methylcyclohexane-1-carboxamide]
K-Ras G12D
  IC50: < 100 nM
K-Ras G12S
  IC50: < 100 nM
A549 cells
  IC50: < 5000 nM
K-Ras G12V
  IC50: < 100 nM
SW620 cells
  IC50: < 5000 nM
K-Ras WT
  IC50: < 100 nM

## CNC(=O)C1CC(N2CCOc3c(Cl)c(-c4ccc(F)c5sc(N)c(C#N)c45)c(F)c4nc(OC[C@@]56CCCN5C[C@H](F)C6)nc2c34)C1 (stereo partly drawn) [Compound 859, 3-(9-(2-amino-3-cyano-7-fluorobenzo[b]thiophen-4-yl)-8-chloro-10-fluoro-2-(((2R,7aS)-2-fluorotetrahydro-1H-pyrrolizin-7a(5H)-yl)methoxy)-5,6-dihydro-4H-[1,4]oxazepino[5,6,7-de]quinazolin-4-yl)-N-methylcyclobutane-1-carboxamide]
K-Ras G12D
  IC50: < 100 nM
K-Ras G12S
  IC50: < 100 nM
A549 cells
  IC50: < 5000 nM
K-Ras G12V
  IC50: < 100 nM
SW620 cells
  IC50: < 5000 nM
K-Ras WT
  IC50: < 100 nM

## C[C@H](Oc1nc2c3c(c(Cl)c(-c4ccc(F)c5sc(N)c(C#N)c45)c(F)c3n1)OCCN2C1CCCN(C(=O)C2CCC2)C1)[C@@H]1CCCN1C (stereo partly drawn) [Compound 862, 2-amino-4-(8-chloro-4-(1-(cyclobutanecarbonyl)piperidin-3-yl)-10-fluoro-2-((S)-1-((S)-1-methylpyrrolidin-2-yl)ethoxy)-5,6-dihydro-4H-[1,4]oxazepino[5,6,7-de]quinazolin-9-yl)-7-fluorobenzo[b]thiophene-3-carbonitrile]
K-Ras G12D
  IC50: < 100 nM
K-Ras G12S
  IC50: < 100 nM
A549 cells
  IC50: < 5000 nM
K-Ras G12V
  IC50: < 100 nM
SW620 cells
  IC50: < 5000 nM
K-Ras WT
  IC50: < 100 nM

## C[C@H](Oc1nc2c3c(c(Cl)c(-c4ccc(F)c5sc(N)c(C#N)c45)c(F)c3n1)OCCN2C1CCCOC1)[C@@H]1CCCN1C (stereo partly drawn) [Compound 880, 2-amino-4-(8-chloro-10-fluoro-2-((S)-1-((S)-1-methylpyrrolidin-2-yl)ethoxy)-4-(tetrahydro-2H-pyran-3-yl)-5,6-dihydro-4H-[1,4]oxazepino[5,6,7-de]quinazolin-9-yl)-7-fluorobenzo[b]thiophene-3-carbonitrile]
K-Ras G12D
  IC50: < 100 nM
K-Ras G12S
  IC50: < 100 nM
A549 cells
  IC50: < 5000 nM
K-Ras G12V
  IC50: < 100 nM
SW620 cells
  IC50: < 5000 nM
K-Ras WT
  IC50: < 100 nM

## COCC1COc2c(Cl)c(-c3ccc(F)c4sc(N)c(C#N)c34)c(F)c3nc(OC[C@@]45CCCN4C[C@H](F)C5)nc(c23)N1C (stereo partly drawn) [Compound 887, 2-amino-4-(8-chloro-10-fluoro-2-(((2R,7aS)-2-fluorotetrahydro-1H-pyrrolizin-7a(5H)-yl)methoxy)-5-(methoxymethyl)-4-methyl-5,6-dihydro-4H-[1,4]oxazepino[5,6,7-de]quinazolin-9-yl)-7-fluorobenzo[b]thiophene-3-carbonitrile]
K-Ras G12D
  IC50: < 100 nM
K-Ras G12S
  IC50: < 100 nM
A549 cells
  IC50: < 5000 nM
K-Ras G12V
  IC50: < 100 nM
SW620 cells
  IC50: < 5000 nM
K-Ras WT
  IC50: < 100 nM

## CN(CCN1CCOc2c(Cl)c(-c3ccc(F)c4sc(N)c(C#N)c34)c(F)c3nc(OC[C@@]45CCCN4C[C@H](F)C5)nc1c23)C(=O)C1CCC1 [Compound 895, N-(2-(9-(2-amino-3-cyano-7-fluorobenzo[b]thiophen-4-yl)-8-chloro-10-fluoro-2-(((2R,7aS)-2-fluorotetrahydro-1H-pyrrolizin-7a(5H)-yl)methoxy)-5,6-dihydro-4H-[1,4]oxazepino[5,6,7-de]quinazolin-4-yl)ethyl)-N-methylcyclobutanecarboxamide]
K-Ras G12D
  IC50: < 100 nM
K-Ras G12S
  IC50: < 100 nM
A549 cells
  IC50: < 5000 nM
K-Ras G12V
  IC50: < 100 nM
SW620 cells
  IC50: < 5000 nM
K-Ras WT
  IC50: < 100 nM

## N#Cc1c(N)sc2c(F)ccc(-c3c(Cl)c4c5c(nc(OC[C@@]67CCCN6C[C@H](F)C7)nc5c3F)N(Cc3cccnc3)CCO4)c12 [Compound 897, 2-amino-4-(8-chloro-10-fluoro-2-(((2R,7aS)-2-fluorotetrahydro-1H-pyrrolizin-7a(5H)-yl)methoxy)-4-(pyridin-3-ylmethyl)-5,6-dihydro-4H-[1,4]oxazepino[5,6,7-de]quinazolin-9-yl)-7-fluorobenzo[b]thiophene-3-carbonitrile]
K-Ras G12D
  IC50: < 100 nM
K-Ras G12S
  IC50: < 100 nM
A549 cells
  IC50: < 5000 nM
K-Ras G12V
  IC50: < 100 nM
SW620 cells
  IC50: < 5000 nM
K-Ras WT
  IC50: < 100 nM

## N#Cc1c(N)sc2c(F)ccc(-c3c(Cl)c4c5c(nc(OCC67CCCN6C[C@H](F)C7)nc5c3F)N(C3CCCOCC3)CCO4)c12 (stereo partly drawn) [Compound 902, 2-amino-4-(8-chloro-10-fluoro-2-(((2R)-2-fluorotetrahydro-1H-pyrrolizin-7a(5H)-yl)methoxy)-4-(oxepan-4-yl)-5,6-dihydro-4H-[1,4]oxazepino[5,6,7-de]quinazolin-9-yl)-7-fluorobenzo[b]thiophene-3-carbonitrile]
K-Ras G12D
  IC50: < 100 nM
K-Ras G12S
  IC50: < 100 nM
A549 cells
  IC50: < 5000 nM
K-Ras G12V
  IC50: < 100 nM
SW620 cells
  IC50: < 5000 nM
K-Ras WT
  IC50: < 100 nM

## Cc1cc(N)nc(-c2c(Cl)c3c4c(nc(OC[C@@]56CCCN5C[C@H](F)C6)nc4c2F)N(CC(F)F)CCO3)c1I [Compound 909, 6-(8-chloro-4-(2,2-difluoroethyl)-10-fluoro-2-(((2R,7aS)-2-fluorotetrahydro-1H-pyrrolizin-7a(5H)-yl)methoxy)-5,6-dihydro-4H-[1,4]oxazepino[5,6,7-de]quinazolin-9-yl)-5-iodo-4-methylpyridin-2-amine]
K-Ras G12D
  IC50: < 100 nM
K-Ras G12S
  IC50: < 100 nM
A549 cells
  IC50: < 5000 nM
K-Ras G12V
  IC50: < 100 nM
SW620 cells
  IC50: < 5000 nM
K-Ras WT
  IC50: < 100 nM

## N#Cc1c(N)sc2c(F)ccc(-c3c(Cl)c4c5c(nc(OC[C@@]67CCCN6C[C@H](F)C7)nc5c3F)N(C3CCC(NC(=O)[C@@H]5N[C@H]5C5CC5)C3)CCO4)c12 (stereo partly drawn) [Compound 920, (2R,3S)—N-(3-(9-(2-amino-3-cyano-7-fluorobenzo[b]thiophen-4-yl)-8-chloro-10-fluoro-2-(((2R,7aS)-2-fluorotetrahydro-1H-pyrrolizin-7a(5H)-yl)methoxy)-5,6-dihydro-4H-[1,4]oxazepino[5,6,7-de]quinazolin-4-yl)cyclopentyl)-3-cyclopropylaziridine-2-carboxamide]
K-Ras G12D
  IC50: < 100 nM
K-Ras G12S
  IC50: < 100 nM
A549 cells
  IC50: < 5000 nM
K-Ras G12V
  IC50: < 100 nM
SW620 cells
  IC50: < 5000 nM
K-Ras WT
  IC50: < 100 nM

## N#Cc1c(N)sc2c(F)ccc(-c3c(Cl)c4c5c(nc(OC[C@@]67CCCN6C[C@H](F)C7)nc5c3F)N(C3CCN(S(=O)(=O)C5CC5)C3)CCO4)c12 (stereo partly drawn) [Compound 922, 2-amino-4-(8-chloro-4-(1-(cyclopropylsulfonyl)pyrrolidin-3-yl)-10-fluoro-2-(((2R,7aS)-2—fluorotetrahydro-1H-pyrrolizin-7a(5H)-yl)methoxy)-5,6-dihydro-4H-[1,4]oxazepino[5,6,7-de]quinazolin-9-yl)-7-fluorobenzo[b]thiophene-3-carbonitrile]
K-Ras G12D
  IC50: < 100 nM
K-Ras G12S
  IC50: < 100 nM
A549 cells
  IC50: < 5000 nM
K-Ras G12V
  IC50: < 100 nM
SW620 cells
  IC50: < 5000 nM
K-Ras WT
  IC50: < 100 nM

## C[C@H](Oc1nc2c3c(c(Cl)c(-c4ccc(F)c5sc(N)c(C#N)c45)c(F)c3n1)OCCN2C1CCOC1)[C@@H]1CCCN1C (stereo partly drawn) [Compound 924, 2-amino-4-(8-chloro-10-fluoro-2-((S)-1-((S)-1-methylpyrrolidin-2-yl)ethoxy)-4-(tetrahydrofuran-3-yl)-5,6-dihydro-4H-[1,4]oxazepino[5,6,7-de]quinazolin-9-yl)-7-fluorobenzo[b]thiophene-3-carbonitrile]
K-Ras G12D
  IC50: < 100 nM
K-Ras G12S
  IC50: < 100 nM
A549 cells
  IC50: < 5000 nM
K-Ras G12V
  IC50: < 100 nM
SW620 cells
  IC50: < 5000 nM
K-Ras WT
  IC50: < 100 nM
